# Laboratory results taken from doi:10.1101/2025.01.28.635346v1 (bioRxiv, 2025).
# Bridge positions count the residues as written; N and C are the ends. Side chains are listed from the residue outwards. Peptide text beside a SMILES is read from it. * marks the point of attachment. Butanoyl(4-(4-I-phenyl)) = O=C(CCCc1ccc(I)cc1)*; PEG2 = NCCOCCOCCC(=O)O
# Assay: Pharmacokinetics in female Sprague-Dawley rats
# Format: in vivo, rat
# [1] = female, Sprague-Dawley, rat, plasma, 30 mg/kg
# [2] = female, Sprague-Dawley, rat, plasma, iv, 30 mg/kg
compound,measurement,setting,value
CC[C@H](C)[C@H](NC(=O)[C@H](CC(C)C)NC(=O)[C@H](CC(=O)O)NC(=O)CNC(=O)[C@H](CCCNC(=N)N)NC(=O)[C@@H](NC(=O)[C@H](Cc1ccccc1)NC(=O)[C@H](Cc1ccc(O)cc1)NC(=O)[C@@H]1CCC(=O)NCC(=O)NCC(=O)N[C@@H](CCCNC(=N)N)C(=O)NCC(=O)N[C@@H](Cc2c[nH]cn2)C(=O)N[C@@H](C(C)C)C(=O)N2CCC[C@H]2C(=O)N1)C(C)C)C(=O)N[C@@H](CO)C(=O)N[C@@H](Cc1ccccc1)C(=O)N[C@@H](Cc1ccc(O)cc1)C(=O)N[C@@H](CCCCNC(=O)CCOCCOCCNC(=O)CCCc1ccc(I)cc1)C(=O)O [lassotide 47] (GGRGHVPEYFVRGDLISFYK([PEG2-Butanoyl(4-(4-I-phenyl))])-OH; lactam N-8),AUC(0-inf),[1],2740 µg·h/mL
same,C0,[1],441 µg/mL
same,Cmax,[1],369 µg/mL
same,AUC(0-t),[2],2360 µg·h/mL
same,Tmax,[2],0.2 h
same,Vd,[2],0.1 L/kg
same,clearance,[2],0.2 mL/min/kg
same,half-life,[2],8.5 h
same,AUCINF,"rat 30 mg/kg, animal 1M001",2670 µg·h/mL
same,AUClast,"rat 30 mg/kg, animal 1M001",2310 µg·h/mL
same,C0,"rat 30 mg/kg, animal 1M001",383 µg/mL
same,CL,"rat 30 mg/kg, animal 1M001",0.187 mL/min/kg
same,Cmax,"rat 30 mg/kg, animal 1M001",327 µg/mL
same,Vz,"rat 30 mg/kg, animal 1M001",0.133 L/kg
same,t1/2,"rat 30 mg/kg, animal 1M001",8.2 h
same,AUCINF,"rat 30 mg/kg, animal 1M002",2370 µg·h/mL
same,AUClast,"rat 30 mg/kg, animal 1M002",2110 µg·h/mL
same,C0,"rat 30 mg/kg, animal 1M002",370 µg/mL
same,CL,"rat 30 mg/kg, animal 1M002",0.211 mL/min/kg
same,Cmax,"rat 30 mg/kg, animal 1M002",336 µg/mL
same,Vz,"rat 30 mg/kg, animal 1M002",0.144 L/kg
same,t1/2,"rat 30 mg/kg, animal 1M002",7.9 h
same,AUCINF,"rat 30 mg/kg, animal 1M003",3180 µg·h/mL
same,AUClast,"rat 30 mg/kg, animal 1M003",2650 µg·h/mL
same,C0,"rat 30 mg/kg, animal 1M003",571 µg/mL
same,CL,"rat 30 mg/kg, animal 1M003",0.157 mL/min/kg
same,Cmax,"rat 30 mg/kg, animal 1M003",443 µg/mL
same,Vz,"rat 30 mg/kg, animal 1M003",0.127 L/kg
same,t1/2,"rat 30 mg/kg, animal 1M003",9.3 h
